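Each compound was tested at five concentrations against cells in 96-well plates for 48 hours. The concentration for 50% growth inhibition is given as GI50.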 Active and inactive are the calls of the source. Cut-off read from the data, not from the text of the source: active = GI50 up to about 1.1 µM and inactive = higher.
What was measured:
Test in all cases: NCI-60 cell line screen, 48 h
EKVX = system: EKVX
COLO 205 = system: COLO 205
UO-31 = system: UO-31
OVCAR-5 = system: OVCAR-5
ACHN = system: ACHN
NCI-H460 = system: NCI-H460
RPMI-8226 = system: RPMI-8226
HCC 2998 = system: HCC 2998
PC-3 = system: PC-3
OVCAR-4 = system: OVCAR-4
T47D = system: T47D
HOP-92 = system: HOP-92
CAKI-1 = system: CAKI-1
SN12C = system: SN12C
SNB-75 = system: SNB-75
K562 = system: K562
RXF 393 = system: RXF 393
786-0 = system: 786-0
HL-60 = system: HL-60
CCRF-CEM = system: CCRF-CEM
SF-268 = system: SF-268
SW-620 = system: SW-620
NCI-H522 = system: NCI-H522
SNB-19 = system: SNB-19
A498 = system: A498
NCI-H23 = system: NCI-H23
UACC-257 = system: UACC-257
SK-OV-3 = system: SK-OV-3
HCT-15 = system: HCT-15
Malme-3M = system: Malme-3M
BT-549 = system: BT-549
HOP-62 = system: HOP-62
HCT-116 = system: HCT-116
SF-539 = system: SF-539
M14 = system: M14
Hs-578T = system: Hs-578T
DU-145 = system: DU-145
LOX IMVI = system: LOX IMVI
MDA-MB-231 = system: MDA-MB-231
TK-10 = system: TK-10
NCI-H226 = system: NCI-H226
SK-MEL-5 = system: SK-MEL-5
MDA-MB-435 = system: MDA-MB-435
KM12 = system: KM12
SR = system: SR
HT-29 = system: HT-29
OVCAR-3 = system: OVCAR-3
SF-295 = system: SF-295
UACC-62 = system: UACC-62
SK-MEL-2 = system: SK-MEL-2
IGROV-1 = system: IGROV-1
MDA-N = system: MDA-N
MOLT-4 = system: MOLT-4
NCI/ADR-RES = system: NCI/ADR-RES
SK-MEL-28 = system: SK-MEL-28
A549 = system: A549
OVCAR-8 = system: OVCAR-8
MCF7 = system: MCF7
U-251 = system: U-251

O=C1c2cccc3cccc(c23)C(=O)N1CCCNCCCNCCCCNCCCNCCCN1C(=O)c2cccc3cccc(c23)C1=O
GI50 (EKVX): 5.48 µM (inactive) | GI50 (COLO 205): 1.14 µM (inactive) | GI50 (UO-31): 13.1 µM (inactive) | GI50 (OVCAR-5): 6.14 µM (inactive) | GI50 (ACHN): 3.97 µM (inactive) | GI50 (NCI-H460): 1.9 µM (inactive) | GI50 (RPMI-8226): 1.33 µM (inactive) | GI50 (HCC 2998): 3.52 µM (inactive) | GI50 (PC-3): 3.23 µM (inactive) | GI50 (OVCAR-4): 2.83 µM (inactive) | GI50 (T47D): 5.26 µM (inactive) | GI50 (HOP-92): 5.05 µM (inactive) | GI50 (CAKI-1): 12.9 µM (inactive) | GI50 (SN12C): 3.44 µM (inactive) | GI50 (SNB-75): 2.52 µM (inactive) | GI50 (K562): 3.25 µM (inactive) | GI50 (RXF 393): 3.34 µM (inactive) | GI50 (786-0): 1.07 µM (active) | GI50 (HL-60): 0.27 µM (active) | GI50 (CCRF-CEM): 0.479 µM (active) | GI50 (SF-268): 1.93 µM (inactive) | GI50 (SW-620): 2.03 µM (inactive) | GI50 (NCI-H522): 0.789 µM (active) | GI50 (SNB-19): 2.28 µM (inactive) | GI50 (A498): 6.38 µM (inactive) | GI50 (NCI-H23): 2.12 µM (inactive) | GI50 (UACC-257): 6.7 µM (inactive) | GI50 (SK-OV-3): 12.9 µM (inactive) | GI50 (HCT-15): 12.8 µM | GI50 (Malme-3M): 2.6 µM (inactive) | GI50 (BT-549): 3.74 µM (inactive) | GI50 (HOP-62): 3.79 µM (inactive) | GI50 (HCT-116): 1.67 µM (inactive) | GI50 (SF-539): 3.52 µM (inactive) | GI50 (M14): 4.06 µM (inactive) | GI50 (Hs-578T): 1.68 µM (inactive) | GI50 (DU-145): 3.66 µM (inactive) | GI50 (LOX IMVI): 2.55 µM (inactive) | GI50 (MDA-MB-231): 3.78 µM (inactive) | GI50 (TK-10): 11.6 µM (inactive) | GI50 (NCI-H226): 4.46 µM (inactive) | GI50 (SK-MEL-5): 5.93 µM (inactive) | GI50 (MDA-MB-435): 2.73 µM (inactive) | GI50 (KM12): 2.74 µM (inactive) | GI50 (SR): 0.929 µM (active) | GI50 (HT-29): 1.39 µM (inactive) | GI50 (OVCAR-3): 4.67 µM (inactive) | GI50 (SF-295): 7.45 µM (inactive) | GI50 (UACC-62): 2.82 µM (inactive) | GI50 (SK-MEL-2): 4.01 µM (inactive) | GI50 (IGROV-1): 1.96 µM (inactive) | GI50 (MDA-N): 2.36 µM (inactive) | GI50 (MOLT-4): 0.376 µM (active) | GI50 (NCI/ADR-RES): 14.7 µM (inactive) | GI50 (SK-MEL-28): 2.46 µM (inactive) | GI50 (A549): 2.67 µM (inactive) | GI50 (OVCAR-8): 4.93 µM (inactive) | GI50 (MCF7): 0.449 µM (active) | GI50 (U-251): 1.84 µM (inactive)

N#C/C(=C1C=C(Br)/C(=N\O)C=C\1Cl)c1cccc2ccccc12
GI50 (EKVX): 10.8 µM (inactive) | GI50 (COLO 205): 2.29 µM (inactive) | GI50 (UO-31): 11 µM (inactive) | GI50 (OVCAR-5): 3.55 µM (inactive) | GI50 (ACHN): 11 µM (inactive) | GI50 (NCI-H460): 5.16 µM (inactive) | GI50 (RPMI-8226): 5.77 µM (inactive) | GI50 (HCC 2998): 5.77 µM (inactive) | GI50 (PC-3): 2.89 µM (inactive) | GI50 (OVCAR-4): 2.49 µM (inactive) | GI50 (T47D): 2.38 µM (inactive) | GI50 (HOP-92): 8.57 µM (inactive) | GI50 (CAKI-1): 3.48 µM (inactive) | GI50 (SN12C): 8.49 µM (inactive) | GI50 (SNB-75): 0.121 µM (active) | GI50 (K562): 3.51 µM (inactive) | GI50 (RXF 393): 1.37 µM (inactive) | GI50 (786-0): 3.34 µM (inactive) | GI50 (HL-60): 2.3 µM (inactive) | GI50 (CCRF-CEM): 2.62 µM (inactive) | GI50 (SF-268): 4.47 µM (inactive) | GI50 (SW-620): 3.53 µM (inactive) | GI50 (NCI-H522): 2.52 µM (inactive) | GI50 (SNB-19): 10.5 µM (inactive) | GI50 (A498): 9.02 µM (inactive) | GI50 (NCI-H23): 13.2 µM (inactive) | GI50 (UACC-257): 6.62 µM (inactive) | GI50 (SK-OV-3): 5.33 µM (inactive) | GI50 (HCT-15): 4.73 µM | GI50 (Malme-3M): 6.37 µM (inactive) | GI50 (BT-549): 7.43 µM (inactive) | GI50 (HOP-62): 10.3 µM (inactive) | GI50 (HCT-116): 4 µM (inactive) | GI50 (SF-539): 1.96 µM (inactive) | GI50 (M14): 2.77 µM (inactive) | GI50 (Hs-578T): 3.55 µM (inactive) | GI50 (DU-145): 3.31 µM (inactive) | GI50 (LOX IMVI): 4.29 µM (inactive) | GI50 (MDA-MB-231): 4.32 µM (inactive) | GI50 (TK-10): 11.5 µM (inactive) | GI50 (NCI-H226): 2.17 µM (inactive) | GI50 (SK-MEL-5): 3.42 µM (inactive) | GI50 (MDA-MB-435): 2.62 µM (inactive) | GI50 (KM12): 3.92 µM (inactive) | GI50 (SR): 3.11 µM (inactive) | GI50 (HT-29): 2.26 µM (inactive) | GI50 (OVCAR-3): 2.76 µM (inactive) | GI50 (SF-295): 3.12 µM (inactive) | GI50 (UACC-62): 4.12 µM (inactive) | GI50 (SK-MEL-2): 2.48 µM (inactive) | GI50 (IGROV-1): 6.24 µM (inactive) | GI50 (MDA-N): 1.61 µM (inactive) | GI50 (MOLT-4): 3.75 µM (inactive) | GI50 (NCI/ADR-RES): 4.01 µM (inactive) | GI50 (SK-MEL-28): 6.3 µM (inactive) | GI50 (A549): 9.84 µM (inactive) | GI50 (OVCAR-8): 6.37 µM (inactive) | GI50 (MCF7): 4.93 µM (inactive) | GI50 (U-251): 2.96 µM (inactive)

CC(=N\N)/C(C)=N/N=C(C)/C(C)=N/N=C(C)/C(C)=N/N=C(C)/C(C)=N/N
GI50 (EKVX): > 100 µM (inactive) | GI50 (COLO 205): > 100 µM (inactive) | GI50 (UO-31): > 100 µM (inactive) | GI50 (OVCAR-5): > 100 µM (inactive) | GI50 (NCI-H460): > 100 µM (inactive) | GI50 (RPMI-8226): > 100 µM (inactive) | GI50 (HCC 2998): > 100 µM (inactive) | GI50 (PC-3): > 100 µM (inactive) | GI50 (OVCAR-4): > 100 µM (inactive) | GI50 (T47D): > 100 µM (inactive) | GI50 (HOP-92): 0.316 µM (active) | GI50 (CAKI-1): > 100 µM (inactive) | GI50 (SN12C): > 100 µM (inactive) | GI50 (SNB-75): > 100 µM (inactive) | GI50 (K562): 37.8 µM (inactive) | GI50 (RXF 393): > 100 µM (inactive) | GI50 (786-0): > 100 µM (inactive) | GI50 (HL-60): > 100 µM (inactive) | GI50 (CCRF-CEM): > 100 µM (inactive) | GI50 (SF-268): > 100 µM (inactive) | GI50 (SW-620): > 100 µM (inactive) | GI50 (NCI-H522): > 100 µM (inactive) | GI50 (SNB-19): > 100 µM (inactive) | GI50 (A498): > 100 µM (inactive) | GI50 (NCI-H23): 66.8 µM (inactive) | GI50 (UACC-257): > 100 µM (inactive) | GI50 (SK-OV-3): > 100 µM (inactive) | GI50 (HCT-15): > 100 µM | GI50 (Malme-3M): > 100 µM (inactive) | GI50 (BT-549): 97.1 µM (inactive) | GI50 (HOP-62): > 100 µM (inactive) | GI50 (HCT-116): > 100 µM (inactive) | GI50 (SF-539): > 100 µM (inactive) | GI50 (M14): > 100 µM (inactive) | GI50 (Hs-578T): > 100 µM (inactive) | GI50 (DU-145): > 100 µM (inactive) | GI50 (LOX IMVI): > 100 µM (inactive) | GI50 (MDA-MB-231): > 100 µM (inactive) | GI50 (TK-10): > 100 µM (inactive) | GI50 (NCI-H226): > 100 µM (inactive) | GI50 (SK-MEL-5): > 100 µM (inactive) | GI50 (MDA-MB-435): > 100 µM (inactive) | GI50 (KM12): > 100 µM (inactive) | GI50 (SR): 0.248 µM (active) | GI50 (HT-29): > 100 µM (inactive) | GI50 (OVCAR-3): > 100 µM (inactive) | GI50 (SF-295): > 100 µM (inactive) | GI50 (SK-MEL-2): > 100 µM (inactive) | GI50 (IGROV-1): > 100 µM (inactive) | GI50 (MDA-N): > 100 µM (inactive) | GI50 (MOLT-4): 20.9 µM (inactive) | GI50 (NCI/ADR-RES): > 100 µM (inactive) | GI50 (SK-MEL-28): > 100 µM (inactive) | GI50 (A549): > 100 µM (inactive) | GI50 (OVCAR-8): > 100 µM (inactive) | GI50 (MCF7): > 100 µM (inactive) | GI50 (U-251): > 100 µM (inactive)

— ChEMBL document CHEMBL1201862, “PubChem BioAssay data set” (2004)
